Assay results published in PMC12390126, “Human Skin Permeation of Ethoxy- and Propoxypropanol Commonly Found in Water-Based Products” (Toxics, 2025).
“Also recorded” adds a separate entry of the source.

Columns and labels:
[1] = Workplace scenario: estimated internal dose and blood concentration after dermal exposure; parameters: species or system human; conditions: 8 h
Protocol: The cumulative amount of PGEE and PGPE in the receptor fluid (µg/cm^2, y-axis) was plotted separately over time (hours, x-axis), and the permeability rate (J), the lag time (Tlag), and the permeability coefficient (Kp) were determined from the generated permeability curve. J (µg/cm^2/h) was calculated as the slope of the steepest linear part of the curve (apparent steady state), and Tlag (h) as its x-axis intercept. Kp (cm/h) was calculated by dividing J with the chemical concentration applied to the skin when diluted in water and with the glycol ether’s density when applied neat. The maximal internal dose in the bloodstream was estimated using the permeability rate obtained for the experiments and calculated as follows:IDmean = J [µg/cm^2/h] × SA [cm^2] × t [h] × P,(1) where IDmean is the mean internal dose of PGEE or PGPE after skin exposure, J is the experimental permeability rate, SA represents the surface area exposed to the solvent, t is the time of exposure, and P represents the average percentage of PGEs in commercialized products. We used the J from the aqueous experiments because PGEs are mostly present in water-based products. The surface area exposed was set to 10.4 cm^2 for the hands alone, and 14.2 cm^2 when including the forearms. The total blood volume used for the blood concentration calculation was 5 L [29]. In Switzerland, paint products on the market for both professional and consumer uses contain, on average, 22.3% of PGEE and/or 5.9% of PGPE [17].
Recreating a workplace scenario, the mean internal dose after one workday for a worker in contact with products containing PGEE or PGPE was estimated based on our results. Mixing tasks are common in companies that use paint products, such as those in the construction and car repair industries. This task usually involves opening containers and mixing large quantities of paint. Workers’ hands, and occasionally forearms, are often contaminated by paint splashes and contact with various painting equipment. Based on our in vitro results and assuming dermal exposure only, after one 8 h workday, with a SA of 10.4 cm^2 and PGEs content of either 22.3% or 5.9%, the mean estimated internal dose for a worker performing a paint mixing task without wearing gloves is 8.3 mg of PGEE (see Equation (1)). This corresponds to a blood concentration of 1.7 mg/L. Under the same conditions, if the worker is exposed to products containing PGPE, the mean estimated internal dose after one workday is 0.9 mg, corresponding to a blood concentration of 0.2 mg/L. The addition of water to the mixture, for example, from perspiration or from the water-based product itself, increases the estimated internal dose to 19.9 mg (3.9 mg/L) for PGEE exposure and 4.1 mg (0.8 mg/L) for PGPE exposure. Some paint products may contain both PGEs mixed with other chemical substances; however, mixtures were not considered in this scenario. Further studies are necessary to investigate the effects of chemical mixtures on glycol ether skin permeation. Furthermore, PGEE and PGPE are volatile organic compounds, so workers can be exposed not only through direct skin contact but also via skin vapor absorption through the skin or inhalation. Therefore, the blood concentrations estimated in our workplace scenario would likely be higher under real working conditions involving all routes of absorption. Since no biological reference values are currently available for these compounds, it is not possible to estimate the potential risks associated with exposure at these blood concentrations. However, due to the high skin permeation of these compounds, workers and consumers must wear appropriate protective equipment to limit their exposure.

[2] = In vitro flow-through diffusion cell skin permeation; assay type: in vitro ADME, human; conditions: for first quantified in the receptor fluid after application: Figure 1A, first 3 h of exposure; for permeability rate J diluted in water compared to neat: aqueous 50:50 versus neat; for time to permeate previously frozen human skin: aqueous PGEs applied
Text: Human abdominal full thickness skin was obtained as surgical waste from the Lausanne University Hospital (CHUV) and the Department of Musculoskeletal Medicine (DAL) Biobank, Switzerland, according to the Swiss ethics in the canton Vaud (CER-VD: Commission cantonal d’éthique de la recherche sur l’être humain, ethical protocol 264/12). The surgeon obtained written consent from the patients before the start of the operation. The collected skin was anonymized, and only sex and age were provided for this study. Human skin was obtained directly after the surgery and immediately dermatomed to a thickness of 800 µm (Acculan®II, B. Braun/Aesculap, Sempach, Switzerland) to account for any potential storage effects on its in vitro mass balance. The experiments were run with triplicate skin samples (n = 3) from three different donors giving a total of nine samples for each experiment. The skin samples used for this study were stored at −20 °C for up to four years. The experiments were performed only when a sufficient number of skin samples was available from three different donors.
The in vitro flow-through diffusion cell experiments were used to assess skin permeation kinetics after neat and aqueous application, separately. The abdominal human frozen skin was thawed for one hour at room temperature and cut into disks (exposed area of 1 cm^2). These were mounted onto the diffusion cells between the donor and the receptor chamber filled with saline water (0.9% NaCl (aq), 8 mL). Four different experimental conditions were used: application of solutions containing either PGEE or PGPE (neat) and application of aqueous solutions of PGEE or PGPE (50:50 v/v mixture). Each experiment was performed with triplicate cells from three different donors ([…] diffusion cells exposed to PGE per experimental condition) and one control cell per skin donor (n = 3 diffusion cells not exposed to PGE). The trans epidermal water loss (TEWL; VapoMeter wireless, Delfin Technologies Ltd., Kuopio, Finland) was measured for each skin disk to assess skin sample integrity. Skin samples with a TEWL greater than 11 g/m^2/h were excluded. TEWL was measured again at the end of each experiment to confirm skin integrity throughout the experiment.
The in vitro flow-through diffusion cell experiments were carried out using a rack-mounted system consisting of nine in-line jacketed flow-through diffusion cells (PermeGear® from SES Analytical System, Bechenheim, Germany). A peristaltic pump (Ismatec IPC-N, IDEX Health and Science GmbH, Wertheim-Mondfeld, Germany) operated at a flow rate of 200 µL/min for the first 180 min to ensure that the transition point—when the glycol ethers reached the receptor fluid—was accurately captured for these rapidly diffusing substances. The pump rate was then adjusted to 40 µL/min for the remaining time until 24 h. These collection times and flow rates were set to achieve steady state. The diffusion cell system was equipped with a magnetic stirrer in each cell to ensure a constant and uniform mixing of the substances in the reservoir fluid. The diffusion cells were kept at 32 °C with a heated water bath (Haake SC 100 Digital Immersion Circulator, Thermo Scientific, Newington, NH, USA). A fraction collector (FC 204, Gilson Inc., Middleton, WI, USA) automatically sampled the reservoir fluid at different time points for 24 h, i.e., at 0.5, 1, 1.5, 2, 2.5, 3, 6, 9, 12, 15, 18, 21, and 24 h. PGPE (>95%) and PGEE (>99%) (Chemic Brunschwig AG, Basel, Switzerland) were applied separately onto the skin samples either neat substances or aqueous solutions (Milli-Q Advantage A10 System, Millipore AG, MerckMillipore, Schaffhouse, Switzerland). We applied 500 µL (aqueous application) and 200 µL (neat application) of them to increase the likelihood of reaching steady state permeation conditions. All collected samples were stored at 4 °C after the experiment. […]

[3] = SA 10.4 cm^2, content 22.3% PGEE or 5.9% PGPE, blood volume 5 L, no added water
[4] = SA 10.4 cm^2, content 22.3% PGEE or 5.9% PGPE, dermal only, no added water
[5] = with addition of water to the mixture, SA 10.4 cm^2, 22.3% PGEE or 5.9% PGPE

estimated blood concentration [1, 3] [mg/L]	mean estimated internal dose after one workday [1, 4] [mg]	mean estimated internal dose after one workday [1, 5] [mg]	estimated blood concentration ([1]; with addition of water to the mixture, SA 10.4 cm^2, blood volume 5 L) [mg/L]	first quantified in the receptor fluid after application [2] [min]	time to permeate previously frozen human skin [2] [min]	Structure (SMILES)	permeability rate J diluted in water compared to neat [2]
0.2	0.9	4.1	0.8	30	≤ 30	CCCOCC(C)O (stereo not shown) [PGPE, propoxypropanol]	four times greater; also recorded: more than four times quicker
1.7	8.3	19.9		30	≤ 30	CCOCC(C)O (stereo not shown) [PGEE]	double
